The source of these data is patent publication US12570638B2, “Fused imidazole derivatives as AHR antagonists” (Sail Biomedicines, Inc., priority 2020, dated 2026).

Data set [1] in a line: Liver Microsome Stability Assay, human. The format is in vitro ADME. The settings on record: human liver microsomes, with NADPH, 1 μM compound, read-out: Human liver microsome clearance. Here is the method:
The master solution was prepared according to Table 6.
Two separate experiments were performed as follows.
With Cofactors (NADPH): 25 μL of 10 mM NADPH was added to the incubations. The final concentrations of microsomes and NADPH were 0.5 mg/mL and 1 mM, respectively. The final concentration of microsomes was 0.5 mg/mL. The mixture was pre-warmed at 37° C. for 10 minutes. The reaction was started with the addition of 2.5 μL of 100 μM control compound or test compound solutions. Verapamil was used as positive control in this study. The final concentration of test compound or control compound was 1 μM. The incubation solution was incubated in water batch at 37° C. Aliquots of 25 μL were taken from the reaction solution at 0.5, 5, 15, 30 and 60 minutes. The reaction was stopped by the addition of 5 volumes of cold acetonitrile with IS (200 nM caffeine and 100 nM tolbutamide). Samples were centrifuged at 3, 220 g for 40 minutes. Aliquot of 100 μL of the supernatant was mixed with 100 μL of ultra-pure H2O and then used for LC-MS/MS analysis.
Data Analysis: All calculations were carried out using Microsoft Excel. Peak areas were determined from extracted ion chromatograms. The slope value, k, was determined by linear regression of the natural logarithm of the remaining percentage of the parent drug vs. incubation time curve.
The in vitro half-life (in vitro t1/2) was determined from the slope value: in vitro t1/2=−([…]/k)
Conversion of the in vitro t1/2 (min) into the in vitro intrinsic clearance (in vitro CLint, in μL/min/mg protein) was done using the following equation (mean of duplicate determinations):
The calculations of Scaled-up CLint (mL/min/kg), Predicted CLH (mL/min/kg) and EH were done using the following equation: Scaled-up CLint=(0.693/t1/2)×(1/(microsomal protein concentration(0.5 mg/mL)))×Scaling Factors; Predicted CLH=(QH×Scaled-up CLint×fub)/(QH+Scaled-up CLint×fub); EH=Predicted CLH/QH • where QH is the hepatic blood flow (mL/min/kg) (Table 7), • fub is the fraction of unbound drug in plasma which is assumed to be 1. […]

A short description of data set [2]: Hepatocyte Stability Assay, rat. The format is in vitro ADME. Particulars: cryopreserved hepatocytes, read-out: Rat hepatocyte clearance. Here is the method:
Preparation of working solutions: 10 mM stock solutions of test compound and positive control were prepared in DMSO. In separate conical tubes, the 10 mM solution of test compound and the positive control were diluted to 100 μM by combining 198 μL of 50% acetonitrile/50% water and 2 μL of 10 mM stock.
Preparation of Hepatocytes: Incubation medium (William's E Medium supplemented with GlutaMAX) and hepatocyte thawing medium were placed in a 37° C. water bath and allowed warming for at least 15 minutes prior to use. A vial of cryopreserved hepatocytes was transferred from storage, ensuring that vials remained at cryogenic temperatures until thawing process ensued. Cells were thawed by placing the vial in a 37° C. water bath and gently shaking the vials for 2 minutes. […] Using an AO/PI Staining, cells were counted and the viable cell density was determined. Cells with poor viability (<75% viability) were determined to be not acceptable for use. […]
Data Analysis: All calculations were carried out using Microsoft Excel. Peak areas were determined from extracted ion chromatograms. In vitro half-life (t1/2) of parent compound was determined by regression analysis of the percent parent disappearance vs. time curve.
The in vitro half-life (in vitro t1/2) was determined from the slope value: in vitro t1/2=0.693/k […]

With `Cn1nccc1C(=O)Nc1ccc2nc(-c3ccccc3C(F)(F)F)[nH]c2c1` [A, 1-methyl-N-(2-(2-(trifluoromethyl)phenyl)-1H-benzo[d]imidazol-6-yl)-1H-pyrazole-5-carboxamide], the CLint scaled at 1 μM in data set [1] was less than 10 mL/min/kg.

For the compound `Cn1ncnc1C(=O)Nc1ccc2nc(-c3ccccc3C(F)(F)F)[nH]c2c1` [Compound H, 1-methyl-N-(2-(2-(trifluoromethyl)phenyl)-1H-benzo[d]imidazol-6-yl)-1H-1,2,4-triazole-5-carboxamide], the results for the CLint scaled at 1 μM in data set [2] and in data set [1] were less than 20 mL/min/kg and less than 10 mL/min/kg, respectively.
